Assays:
Assay in all cases: relative viability (nuclei count vs DMSO), 5 days (fraction); higher = more cells survive
Ibrutinib + Navitoclax = compound: C=CC(=O)N1CCC[C@@H](n2nc(-c3ccc(Oc4ccccc4)cc3)c3c(N)ncnc32)C1 [Ibrutinib] + CC1(C)CCC(c2ccc(Cl)cc2)=C(CN2CCN(c3ccc(C(=O)NS(=O)(=O)c4ccc(N[C@H](CCN5CCOCC5)CSc5ccccc5)c(S(=O)(=O)C(F)(F)F)c4)cc3)CC2)C1 [Navitoclax] (partner 0.5 µM)
Procedure, shortened: (§1)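 Five library-drug doses in √10 steps were combined with a fixed anchor-drug dose, or a single drug was given alone, by pin tool to lung cancer cell lines in 1536-well plates the day after seeding. Nuclei were stained and counted after 5 days. Relative viability is the nuclei count in treated wells over that in vehicle wells, taken as the median of duplicate plates.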

Ibrutinib + Vorinostat = compound: C=CC(=O)N1CCC[C@@H](n2nc(-c3ccc(Oc4ccccc4)cc3)c3c(N)ncnc32)C1 [Ibrutinib] + O=C(CCCCCCC(=O)Nc1ccccc1)NO [Vorinostat] (partner 1 µM)
Procedure, shortened: as §1

BMX-IN-1 + Bortezomib = compound: C=CC(=O)Nc1cc(-n2c(=O)ccc3cnc4ccc(-c5ccc(NS(C)(=O)=O)cc5)cc4c32)ccc1C [BMX-IN-1] + CC(C)C[C@H](NC(=O)[C@H](Cc1ccccc1)NC(=O)c1cnccn1)B(O)O [Bortezomib] (partner 0.002 µM)
Procedure, shortened: as §1

BMX-IN-1 + Alpelisib = compound: C=CC(=O)Nc1cc(-n2c(=O)ccc3cnc4ccc(-c5ccc(NS(C)(=O)=O)cc5)cc4c32)ccc1C [BMX-IN-1] + Cc1nc(NC(=O)N2CCC[C@H]2C(N)=O)sc1-c1ccnc(C(C)(C)C(F)(F)F)c1 [Alpelisib] (partner 2 µM)
Procedure, shortened: as §1

| Cell Line | relative viability (Ibrutinib + Navitoclax; first compound 0.01581 µM) | relative viability (Ibrutinib + Navitoclax; first compound 0.05 µM) | relative viability (Ibrutinib + Navitoclax; first compound 0.1581 µM) | relative viability (Ibrutinib + Navitoclax; first compound 0.5 µM) | relative viability (Ibrutinib + Vorinostat; first compound 0.01581 µM) | relative viability (Ibrutinib + Vorinostat; first compound 0.1581 µM) | relative viability (Ibrutinib + Vorinostat; first compound 0.5 µM) | relative viability (BMX-IN-1 + Bortezomib; first compound 0.02 µM) | relative viability (BMX-IN-1 + Bortezomib; first compound 0.2 µM) | relative viability (BMX-IN-1 + Bortezomib; first compound 0.6325 µM) | relative viability (BMX-IN-1 + Bortezomib; first compound 2 µM) | relative viability (BMX-IN-1 + Alpelisib; first compound 0.02 µM) | relative viability (BMX-IN-1 + Alpelisib; first compound 0.2 µM) | relative viability (BMX-IN-1 + Alpelisib; first compound 0.6325 µM) | relative viability (BMX-IN-1 + Alpelisib; first compound 2 µM) | relative viability (Ibrutinib + Vorinostat; first compound 0.005 µM) | relative viability (Ibrutinib + Vorinostat; first compound 0.05 µM) | relative viability (Ibrutinib + Navitoclax; first compound 0.005 µM) |
| --- | --- | --- | --- | --- | --- | --- | --- | --- | --- | --- | --- | --- | --- | --- | --- | --- | --- | --- |
| NCI-H1355 | 0.904 | 0.918 | 0.96 | 0.801 | 0.626 | 0.688 | 0.549 | 1.26 | 1.21 | 1.4 | 1.22 | 0.906 | 0.943 | 0.865 | 0.786 | – | – | – |
| LK-2 | 0.7 | 0.851 | 0.956 | 0.75 | 0.234 | 0.293 | 0.177 | – | – | – | – | 1.75 | 1.43 | 1.04 | 0.993 | 0.236 | 0.266 | – |
| NCI-H1650 | 0.932 | 1.24 | 1.25 | 1.1 | 0.589 | 0.71 | 0.535 | 0.178 | 0.203 | 0.201 | 0.186 | – | – | – | – | 0.579 | 0.422 | 0.998 |
| NCI-H838 | 1.12 | 1.23 | 1.17 | 1.21 | 0.688 | 0.77 | 0.717 | 0.724 | 0.803 | 0.95 | 0.777 | 1.18 | 0.961 | 1.06 | 1.04 | 0.786 | 0.762 | 1.18 |
| EMC-BAC-2 | 1.06 | 1.01 | 1.16 | 1.02 | 0.525 | – | 0.453 | 1.15 | 1.1 | 1.26 | 1.1 | 0.891 | 0.873 | 0.783 | 0.625 | 0.412 | – | 1.16 |
| SW 1573 | 0.857 | 1.01 | 0.95 | 0.848 | 0.793 | 1.06 | 1.06 | 1.38 | 1.06 | 1.08 | 0.996 | 0.913 | 0.882 | 0.8 | 0.798 | – | 0.694 | 0.904 |
| CAL-12T | 1.16 | 1.33 | 1.37 | 0.951 | 0.623 | 0.841 | 0.621 | 0.92 | 0.785 | 1.17 | 0.949 | 1.74 | 1.27 | 1.04 | 1.32 | 0.617 | 0.464 | – |
| NCI-H2009 | 1.12 | 1.22 | 1.21 | 1.16 | 0.705 | 0.759 | 0.742 | 1.07 | 1.19 | 1.16 | 1.01 | 1.05 | 1.33 | 1.25 | 1.18 | 0.728 | 0.764 | 1.13 |
| HARA | 1.1 | 1.12 | 1.15 | 0.791 | 0.482 | 0.64 | 0.553 | 1.14 | 1.62 | 1.16 | 1.22 | 1.04 | 0.883 | 0.787 | 0.846 | 0.606 | 0.663 | 1.17 |
| HCC-827 | 0.995 | 1.08 | 1.04 | 0.434 | 0.943 | 0.875 | 0.861 | 1.11 | 1.09 | 1.16 | 1.11 | 0.95 | 0.889 | 1.05 | 0.946 | 0.916 | 1.06 | 1.01 |
| EBC-1 | 0.433 | 0.516 | 0.349 | 0.388 | – | – | – | 0.574 | 0.581 | 0.626 | 0.598 | 0.701 | 0.698 | 1.01 | 0.812 | – | – | 0.441 |
| NCI-H647 | 1.13 | 1.22 | 1.05 | 1.1 | 0.472 | 0.645 | 0.67 | 1.15 | 1.42 | 1.24 | 1.01 | 1.25 | 1.32 | 1.36 | 0.974 | 0.569 | 0.695 | 1.09 |
| A549 | 1.2 | 1.23 | 1.3 | 1.19 | – | – | – | – | – | – | – | 0.94 | 0.716 | 0.813 | 0.762 | – | – | 1.26 |
| NCI-H661 | – | – | – | – | 0.761 | 0.758 | 0.752 | 0.86 | 0.785 | 0.841 | 0.685 | 0.675 | 0.889 | 0.758 | 0.692 | 0.746 | 0.752 | – |
| NCI-H1651 | 1.03 | 1.12 | 1 | 0.837 | 0.629 | 0.577 | 0.574 | 0.959 | 1.06 | 0.921 | 0.951 | 1.07 | 1.06 | 0.943 | 0.863 | 0.492 | 0.524 | 0.853 |
| HCC-78 | 0.746 | 0.722 | 0.696 | 0.566 | 0.403 | 0.446 | 0.388 | 0.534 | 0.474 | 0.432 | 0.546 | 0.355 | 0.319 | 0.391 | 0.175 | – | 0.405 | 0.785 |
